Assay results from patent US20160242416A1, “FUNGICIDAL ISOXAZOLINE CARBINOLS” (E I DU PONT DE NEMOURS AND COMPANY, priority 2015, published 2016).

Tests used:
Phytophthora infestans = assay type: in vivo; details: 100 = 100% disease control; for Test C rating (% disease control): 50 ppm (asterisk), tomato late blight, 0 = no control
Botrytis cinerea = assay: Test B: gray mold, preventive spray on tomato seedlings; details: 100 = 100% disease control; for Test B rating (% disease control): gray mold on tomato, 0 = no control; for Test B disease control rating: 0 = no control relative to controls
[1] = test system: Puccinia recondita f sp. tritici; assay: Test F: wheat leaf rust, preventive spray on wheat seedlings; details: 100 = 100% disease control; for Test F rating (% disease control): wheat leaf rust, 0 = no control; for Test F disease control rating: 0 = no control relative to controls
Zymoseptoria tritici = assay: Test E: wheat leaf blotch, preventive spray on wheat seedlings; details: 100 = 100% disease control; for Test E rating (% disease control): wheat leaf blotch, 0 = no control; for Test E disease control rating: 0 = no control relative to controls
Stagonospora nodorum = assay: Test D: wheat glume blotch, preventive spray on wheat seedlings; details: 100 = 100% disease control; for Test D rating (% disease control): wheat glume blotch, 0 = no control; for Test D disease control rating: 0 = no control relative to controls
[2] = test system: Erysiphe graminis f sp. tritici; assay: Test G: wheat powdery mildew, preventive spray on wheat seedlings; details: 100 = 100% disease control; for Test G rating (% disease control): wheat powdery mildew, 0 = no control; for Test G disease control rating: 0 = no control relative to controls
From the text: General protocol for preparing test solutions for Tests A-G: the test compounds were first dissolved in acetone in an amount equal to 3% of the final volume and then suspended at the desired concentration (in ppm) in acetone and purified water (50/50 mix by volume) containing 250 ppm of the surfactant PEG400 (polyhydric alcohol esters). The resulting test suspensions were then used in Tests A-G. Compounds were sprayed at a concentration of 50 ppm (*) or 10 ppm to the point of run-off on the test plants, the equivalent of a rate of 200 g/ha or 40 g/ha, respectively.
The test solution was sprayed to the point of run-off on wheat seedlings. The following day the seedlings were inoculated with a spore dust of Erysiphe graminis f sp. tritici, (the causal agent of wheat powdery mildew) and incubated in a growth chamber at 20° C. for 8 days, after which time visual disease ratings were made.
Compounds with an asterisks (*) were applied at a concentration of 50 ppm, otherwise test solutions were applied at 10 ppm.

[3] = 50 ppm test solution (asterisked compounds)

Row | SMILES | Test C rating (% disease control) (Phytophthora infestans) | Test B rating (% disease control) (Botrytis cinerea; 50 ppm (asterisk)) | Test F rating (% disease control) ([1]; 50 ppm (asterisk)) | Test E rating (% disease control) (Zymoseptoria tritici; 50 ppm (asterisk)) | Test D rating (% disease control) (Stagonospora nodorum; 50 ppm (asterisk)) | Test G rating (% disease control) ([2]; 50 ppm (asterisk)) | other results
1 | CC1(c2ccc(Cl)cc2)CC(C(O)(Cn2cncn2)c2ccccc2)=NO1 (single isomer, unassigned) [Compound 210] | 0% | 0% | 100% | 41% | 100% | 100% | 
2 | OC(Cn1cncn1)(C1=NOC(c2ccc(Cl)cc2)C1)c1ccc(Cl)cc1 (single isomer, unassigned) [Compound 123] | 0% | 56% | 100% | 100% | 100% | 100% | 
3 | CC(C)(C)C(O)(Cn1cncn1)C1=NOC(c2ccc(Cl)cc2)C1 (single isomer, unassigned) [Compound 133] | 0% | 95% | 100% | 88% | 100% | 99% | 
4 | OC(Cn1cncn1)(C1=NOC(c2ccc(Cl)cc2)C1)c1ccc(F)cc1F (single isomer, unassigned) [Compound 131] | 0% | 0% | 100% | 5% | 100% | 100% | 
5 | OC(Cn1cncn1)(C1=NOC(c2ccc(Cl)cc2)C1)c1ccccc1 (mixture of isomers) [Compound 117] | 0% | 61% | 99% | 11% | 100% | 98% | 
6 | OC(Cn1cncn1)(C1=NOC(c2ccc(Cl)cc2)C1)c1ccc(Cl)cc1 (single isomer, unassigned) [Compound 120] | 0% | 0% | 100% | 8% | 95% | 98% | 
7 | CC1(c2ccc(Cl)cc2)CC(C(O)(Cn2cncn2)c2ccc(Cl)cc2)=NO1 (single isomer, unassigned) [Compound 213] | 0% | 7% | 99% | 0% | 52% | 96% | 
8 | OC(Cn1cncn1)(C1=NOC(c2ccccc2)C1)c1ccccc1 (mixture of isomers) [Compound 115] | 0% | 51% | 68% | 0% | 100% | 99% | 
9 | CC1(c2ccc(Cl)cc2)CC(C(O)(Cn2cncn2)c2ccccc2)=NO1 (single isomer, unassigned) [Compound 211] | 0% | 0% | 28% | 0% | 0% | 76% | 
10 | CC1(c2ccc(Cl)cc2)CC(C(O)(Cn2cncn2)c2ccc(Cl)cc2)=NO1 (single isomer, unassigned) [Compound 212] | 0% | 28% | 100% | 0% | 96% | 100% | 
11 | OC(Cn1cncn1)(C1=NOC(c2ccccc2)(C(F)(F)F)C1)c1ccc(Cl)cc1 (single isomer, unassigned) [Compound 215] |  |  |  |  |  |  | Test C disease control rating (Phytophthora infestans; 50 ppm test solution (asterisked compounds), 0 = no control relative to controls): 0%; Test B disease control rating (Botrytis cinerea; [3]): 0%; Test F disease control rating [1, 3]: 100%; Test E disease control rating (Zymoseptoria tritici; [3]): 0%; Test D disease control rating (Stagonospora nodorum; [3]): 0%; Test G disease control rating [2, 3]: 100%
12 | OC(Cn1cncn1)(C1=NOC(c2ccccc2F)C1)c1ccccc1 (mixture of isomers) [Compound 118] | 0% | 68% | 89% | 0% | 100% | 99% | 
13 | OC(Cn1cncn1)(C1=NOC(c2ccc(F)cc2)C1)c1ccc(F)cc1 (single isomer, unassigned) [Compound 122] | 0% | 0% | 100% | 77% | 100% | 100% | 
14 | OC(Cn1cncn1)(C1=NOC(c2c(F)cccc2F)C1)c1ccccc1 (mixture of isomers) [Compound 1] | 0% | 0% | 99% | 18% | 99% | 100% | 
15 | CC(C)(C)C1CC(C(O)(Cn2cncn2)c2ccccc2)=NO1 (single isomer, unassigned) [Compound 125] | 0% | 0% | 28% | 0% | 0% | 89% | 
16 | CC(C)(C)C(O)(Cn1cncn1)C1=NOC(c2ccc(Cl)cc2)C1 (single isomer, unassigned) [Compound 132] | 0% | 99% | 100% | 81% | 100% | 100% | 
17 | OC(Cn1cncn1)(C1=NOC(c2ccc(Cl)cc2)C1)c1ccc(Cl)cc1Cl (single isomer, unassigned) [Compound 140] |  |  |  |  |  |  | Test B rating (% disease control) (Botrytis cinerea; 10 ppm): 0%; Test F rating (% disease control) ([1]; 10 ppm): 100%; Test E rating (% disease control) (Zymoseptoria tritici; 10 ppm): 67%; Test D rating (% disease control) (Stagonospora nodorum; 10 ppm): 82%; Test G rating (% disease control) ([2]; 10 ppm): 99%
18 | CC(C)(C)C(O)(Cn1cncn1)C1=NOC(Cc2ccc(Cl)c(Cl)c2)C1 (single isomer, unassigned) [Compound 23] |  |  |  |  |  |  | Test B rating (% disease control) (Botrytis cinerea; 10 ppm): 0%; Test F rating (% disease control) ([1]; 10 ppm): 100%; Test E rating (% disease control) (Zymoseptoria tritici; 10 ppm): 89%; Test D rating (% disease control) (Stagonospora nodorum; 10 ppm): 97%; Test G rating (% disease control) ([2]; 10 ppm): 100%
19 | CC(C)(C)C(O)(Cn1cncn1)C1=NOC(COc2cccc(Br)c2)C1 (single isomer, unassigned) [Compound 233] |  |  |  |  |  |  | Test B disease control rating (Botrytis cinerea; 10 ppm test solution): 40%; Test F disease control rating ([1]; 10 ppm test solution): 100%; Test E disease control rating (Zymoseptoria tritici; 10 ppm test solution): 0%; Test D disease control rating (Stagonospora nodorum; 10 ppm test solution): 100%; Test G disease control rating ([2]; 10 ppm test solution): 99%
20 | OC(Cn1cncn1)(C1=NOC(c2ccc(Cl)cc2)C1)C1CCCCC1 (single isomer, unassigned) [Compound 197] |  |  |  |  |  |  | Test B rating (% disease control) (Botrytis cinerea; 10 ppm): 11%; Test F rating (% disease control) ([1]; 10 ppm): 100%; Test E rating (% disease control) (Zymoseptoria tritici; 10 ppm): 0%; Test D rating (% disease control) (Stagonospora nodorum; 10 ppm): 92%; Test G rating (% disease control) ([2]; 10 ppm): 98%
21 | CC(C)(C)C(O)(Cn1cncn1)C1=NOC(Cc2ccccc2)C1 (single isomer, unassigned) [Compound 87] |  |  |  |  |  |  | Test B rating (% disease control) (Botrytis cinerea; 10 ppm): 83%; Test F rating (% disease control) ([1]; 10 ppm): 99%; Test E rating (% disease control) (Zymoseptoria tritici; 10 ppm): 1%; Test D rating (% disease control) (Stagonospora nodorum; 10 ppm): 99%; Test G rating (% disease control) ([2]; 10 ppm): 98%
22 | OC(Cn1cncn1)(C1=NOC(c2ccc(Cl)cc2)C1)C1CCCCC1 (single isomer, unassigned) [Compound 196] |  |  |  |  |  |  | Test B rating (% disease control) (Botrytis cinerea; 10 ppm): 0%; Test F rating (% disease control) ([1]; 10 ppm): 100%; Test E rating (% disease control) (Zymoseptoria tritici; 10 ppm): 12%; Test D rating (% disease control) (Stagonospora nodorum; 10 ppm): 99%; Test G rating (% disease control) ([2]; 10 ppm): 100%
23 | OC(Cn1cncn1)(C1=NOC(Cc2ccc(F)cc2)C1)c1ccc(Cl)cc1 (single isomer, unassigned) [Compound 198] |  |  |  |  |  |  | Test B rating (% disease control) (Botrytis cinerea; 10 ppm): 0%; Test F rating (% disease control) ([1]; 10 ppm): 100%; Test E rating (% disease control) (Zymoseptoria tritici; 10 ppm): 0%; Test D rating (% disease control) (Stagonospora nodorum; 10 ppm): 81%; Test G rating (% disease control) ([2]; 10 ppm): 100%
24 | OC(Cn1cncn1)(C1=NOC(COc2ccc(OCc3ccccc3)cc2)C1)c1ccc(Cl)cc1 (single isomer, unassigned) [Compound 69] |  |  |  |  |  |  | Test B rating (% disease control) (Botrytis cinerea; 10 ppm): 27%; Test F rating (% disease control) ([1]; 10 ppm): 100%; Test E rating (% disease control) (Zymoseptoria tritici; 10 ppm): 25%; Test D rating (% disease control) (Stagonospora nodorum; 10 ppm): 38%; Test G rating (% disease control) ([2]; 10 ppm): 94%
25 | OC(Cn1cncn1)(C1=NOC(c2ccc(F)cc2)C1)c1ccc(F)cc1 (single isomer, unassigned) [Compound 119] | 0% | 0% | 41% | 0% |  | 100% | 
